In PMC5218480 (PLoS ONE, 2017):

Tested on: MV-4-11 cells
Assay: Gene expression microarray analysis (Affymetrix PrimeView) and GSEA
Assay type: cell-based, human
Set-up: RFU PODN (11730768_x_at) / Fold change /veh PODN (11730768_x_at) / RFU LINC00158 (11744669_a_at) / Fold change /veh LINC00158 (11744669_a_at) / RFU DUSP10 (11751237_a_at) / Fold change /veh DUSP10 (11751237_a_at) / RFU ID3 (11757404_x_at) / Fold change /veh ID3 (11757404_x_at) / RFU PLEKHG5 (11737974_s_at) / Fold change /veh PLEKHG5 (11737974_s_at) / RFU LRRC4B (11730491_at) / Fold change /veh LRRC4B (11730491_at) / RFU GIMAP4 (11747438_a_at) / Fold change /veh GIMAP4 (11747438_a_at) / RFU KRT8 (11758183_x_at) / Fold change /veh KRT8 (11758183_x_at) / RFU CNN1 (11734310_a_at) / Fold change /veh CNN1 (11734310_a_at) / RFU VPS37D (11726825_at) / Fold change /veh VPS37D (11726825_at) / RFU C10orf10 (11716522_x_at) / Fold change /veh C10orf10 (11716522_x_at) / RFU KIR2DL2 /// KIR2DL4 /// KIR2DL5A /// KIR2DL5B /// KIR2DS1 /// KIR2DS2 /// KIR2DS3 /// KIR2DS4 /// KIR3DL3 /// KIR3DL3 /// KIR3DS1 (11738374_at) / Fold change /veh KIR2DL2 /// KIR2DL4 /// KIR2DL5A /// KIR2DL5B /// KIR2DS1 /// KIR2DS2 /// KIR2DS3 /// KIR2DS4 /// KIR3DL3 /// KIR3DL3 /// KIR3DS1 (11738374_at) / RFU C1QL1 (11718748_at) / Fold change /veh C1QL1 (11718748_at) / RFU TMPRSS4 (11747572_a_at) / Fold change /veh TMPRSS4 (11747572_a_at) / RFU HAMP (11756126_x_at) / Fold change /veh HAMP (11756126_x_at) / RFU RNFT2 (11725882_a_at) / Fold change /veh RNFT2 (11725882_a_at) / RFU NR4A2 (11747474_a_at) / Fold change /veh NR4A2 (11747474_a_at) / RFU ABCC12 (11746883_a_at) / Fold change /veh ABCC12 (11746883_a_at) / RFU TMEM136 (11760407_x_at) / Fold change /veh TMEM136 (11760407_x_at) / RFU CLDN22 /// WWC2 (11732394_at) / Fold change /veh CLDN22 /// WWC2 (11732394_at) / RFU HLA-DPB1 (11760878_x_at) / Fold change /veh HLA-DPB1 (11760878_x_at) / RFU SPINT1 (11716480_a_at) / Fold change /veh SPINT1 (11716480_a_at) / RFU GAP43 (11754022_s_at) / Fold change /veh GAP43 (11754022_s_at) / RFU A4GNT (11735810_at) / Fold change /veh A4GNT (11735810_at) / RFU PRB3 (11715151_x_at) / Fold change /veh PRB3 (11715151_x_at) / RFU TUBB4B (11761932_at) / Fold change /veh TUBB4B (11761932_at) / RFU CAPN14 (11732068_a_at) / Fold change /veh CAPN14 (11732068_a_at) / RFU TMCC2 (11721928_a_at) / Fold change /veh TMCC2 (11721928_a_at) / RFU IRGQ (11745062_a_at) / Fold change /veh IRGQ (11745062_a_at) / RFU FAM174B (11720279_a_at) / Fold change /veh FAM174B (11720279_a_at) / RFU TMPRSS4 (11748680_a_at) / Fold change /veh TMPRSS4 (11748680_a_at) / RFU FAM212B (11763350_a_at) / Fold change /veh FAM212B (11763350_a_at) / RFU PLEKHG5 (11743358_a_at) / Fold change /veh PLEKHG5 (11743358_a_at) / RFU ZSCAN30 (11745921_a_at) / Fold change /veh ZSCAN30 (11745921_a_at) / RFU CMKLR1 (11741424_a_at) / Fold change /veh CMKLR1 (11741424_a_at) / RFU LOC101060620 /// MAPK8IP1 (11723275_at) / Fold change /veh LOC101060620 /// MAPK8IP1 (11723275_at) / RFU SPTSSB (11747773_x_at) / Fold change /veh SPTSSB (11747773_x_at) / RFU PRSS12 (11739890_at) / Fold change /veh PRSS12 (11739890_at) / RFU BIN1 (11741810_x_at) / Fold change /veh BIN1 (11741810_x_at) / RFU WNT11 (11732464_a_at) / Fold change /veh WNT11 (11732464_a_at) / RFU C10orf10 (11716521_a_at) / Fold change /veh C10orf10 (11716521_a_at) / RFU C5orf56 (11738089_at) / Fold change /veh C5orf56 (11738089_at) / RFU CYB561 (11721691_x_at) / Fold change /veh CYB561 (11721691_x_at) / RFU ANKRD19P (11752326_a_at) / Fold change /veh ANKRD19P (11752326_a_at) / RFU OR2T12 /// OR2T33 /// OR2T8 (11738714_s_at) / Fold change /veh OR2T12 /// OR2T33 /// OR2T8 (11738714_s_at) / RFU VCAN (11748164_a_at) / Fold change /veh VCAN (11748164_a_at) / RFU JSRP1 (11732532_at) / Fold change /veh JSRP1 (11732532_at) / RFU KRTAP10-11 (11738290_x_at) / Fold change /veh KRTAP10-11 (11738290_x_at) / RFU MYO3A (11730013_a_at) / Fold change /veh MYO3A (11730013_a_at) / RFU EBF3 (11725865_a_at) / Fold change /veh EBF3 (11725865_a_at) / RFU CAMK2N1 (11719241_x_at) / Fold change /veh CAMK2N1 (11719241_x_at) / RFU C5orf56 (11738088_a_at) / Fold change /veh C5orf56 (11738088_a_at) / RFU OLFML3 (11715873_a_at) / Fold change /veh OLFML3 (11715873_a_at) / RFU LOC100653217 /// NTM (11731650_a_at) / Fold change /veh LOC100653217 /// NTM (11731650_a_at) / RFU MAPK11 (11762145_a_at) / Fold change /veh MAPK11 (11762145_a_at) / RFU FIZ1 (11724087_x_at) / Fold change /veh FIZ1 (11724087_x_at) / RFU OASL (11726364_x_at) / Fold change /veh OASL (11726364_x_at) / RFU SOX15 (11748057_x_at) / Fold change /veh SOX15 (11748057_x_at) / RFU CD79A (11719716_a_at) / Fold change /veh CD79A (11719716_a_at) / RFU HIST1H1D (11736915_at) / Fold change /veh HIST1H1D (11736915_at) / RFU CASKIN2 (11723855_a_at) / Fold change /veh CASKIN2 (11723855_a_at) / RFU LOC730098 (11760151_x_at) / Fold change /veh LOC730098 (11760151_x_at) / RFU OR4N2 (11742367_at) / Fold change /veh OR4N2 (11742367_at) / RFU PRRT2 (11749266_a_at) / Fold change /veh PRRT2 (11749266_a_at) / RFU SNX32 (11753110_a_at) / Fold change /veh SNX32 (11753110_a_at) / RFU CDHR5 (11726645_a_at) / Fold change /veh CDHR5 (11726645_a_at) / RFU RCAN1 (11760418_a_at) / Fold change /veh RCAN1 (11760418_a_at) / RFU FAM167A (11723789_a_at) / Fold change /veh FAM167A (11723789_a_at) / RFU FAM26E (11764081_at) / Fold change /veh FAM26E (11764081_at) / RFU ISYNA1 (11749810_s_at) / Fold change /veh ISYNA1 (11749810_s_at) / RFU ACY1 (11761880_at) / Fold change /veh ACY1 (11761880_at) / RFU 11764098_at / Fold change /veh 11764098_at / RFU SAMD14 (11745864_x_at) / Fold change /veh SAMD14 (11745864_x_at) / RFU NPB (11741838_a_at) / Fold change /veh NPB (11741838_a_at) / RFU TMPRSS6 (11731388_a_at) / Fold change /veh TMPRSS6 (11731388_a_at) / RFU KRTAP10-2 (11738614_at) / Fold change /veh KRTAP10-2 (11738614_at) / RFU ARHGAP8 /// PRR5-ARHGAP8 (11727945_x_at) / Fold change /veh ARHGAP8 /// PRR5-ARHGAP8 (11727945_x_at) / RFU KRTAP5-7 /// NADSYN1 (11734609_at) / Fold change /veh KRTAP5-7 /// NADSYN1 (11734609_at) / RFU RASL12 (11751679_a_at) / Fold change /veh RASL12 (11751679_a_at) / RFU CDKN2B (11736163_a_at) / Fold change /veh CDKN2B (11736163_a_at) / RFU PRF1 (11729649_at) / Fold change /veh PRF1 (11729649_at) / RFU, ZNF638 /// ZNF638-IT1 / Fold change vs veh, ZNF638 /// ZNF638-IT1 / RFU, PANK3 / Fold change vs veh, PANK3 / RFU, SH3YL1 / Fold change vs veh, SH3YL1 / RFU, ZEB2 / Fold change vs veh, ZEB2 / RFU, NRIP1 / Fold change vs veh, NRIP1 / RFU, PTTG1IP / Fold change vs veh, PTTG1IP / RFU, CAPN2 / Fold change vs veh, CAPN2 / RFU, MED14 / Fold change vs veh, MED14 / RFU, SNORA58 / Fold change vs veh, SNORA58 / RFU, C1orf63 / Fold change vs veh, C1orf63 / RFU, LRRFIP1 / Fold change vs veh, LRRFIP1 / RFU, NDUFAF7 / Fold change vs veh, NDUFAF7 / RFU, SLC12A2 / Fold change vs veh, SLC12A2 / RFU, IBTK / Fold change vs veh, IBTK / RFU, ESF1 / Fold change vs veh, ESF1 / Fold change vs veh, TMEM50B / RFU, TAOK1 / Fold change vs veh, TAOK1 / RFU, ACBD3 / Fold change vs veh, ACBD3 / RFU, TMA16 / Fold change vs veh, TMA16 / RFU, RWDD3 / Fold change vs veh, RWDD3 / RFU, BCAT1 / Fold change vs veh, BCAT1 / RFU, EDEM3 / Fold change vs veh, EDEM3 / RFU, TMEM33 / Fold change vs veh, TMEM33 / RFU, WDR75 / Fold change vs veh, WDR75 / RFU, AHCTF1 / Fold change vs veh, AHCTF1 / RFU, TFRC / Fold change vs veh, TFRC / RFU, ZDHHC17 / Fold change vs veh, ZDHHC17 / RFU, NOM1 / Fold change vs veh, NOM1 / RFU, ARL8B / Fold change vs veh, ARL8B / RFU, ZBTB11 / Fold change vs veh, ZBTB11 / RFU, TAMM41 / Fold change vs veh, TAMM41 / RFU, KIAA1704 /// LOC100996395 / Fold change vs veh, KIAA1704 /// LOC100996395 / RFU, ING1 / Fold change vs veh, ING1 / RFU, TRMT61B / Fold change vs veh, TRMT61B / RFU, FUBP3 / Fold change vs veh, FUBP3 / RFU, TP53 / Fold change vs veh, TP53 / RFU, TNKS2 / Fold change vs veh, TNKS2 / RFU, ZFP14 / Fold change vs veh, ZFP14 / RFU, ACTR2 / Fold change vs veh, ACTR2 / RFU, PPP3R1 / Fold change vs veh, PPP3R1 / RFU, PIK3R1 / Fold change vs veh, PIK3R1 / RFU, HNRNPA1 / Fold change vs veh, HNRNPA1 / RFU, RNF170 / Fold change vs veh, RNF170 / RFU, ZNF28 / Fold change vs veh, ZNF28 / RFU, RNGTT / Fold change vs veh, RNGTT / RFU, OGT / Fold change vs veh, OGT / RFU, BRD1 / Fold change vs veh, BRD1 / RFU, MARS / Fold change vs veh, MARS / RFU, ZNF655 / Fold change vs veh, ZNF655 / RFU, FAHD1 / Fold change vs veh, FAHD1 / RFU, BDP1 / Fold change vs veh, BDP1 / RFU, LRRCC1 / Fold change vs veh, LRRCC1 / RFU, ARID1A / Fold change vs veh, ARID1A / RFU, ZNF146 / Fold change vs veh, ZNF146 / RFU, ZNF330 / Fold change vs veh, ZNF330 / RFU, GPN3 / Fold change vs veh, GPN3 / RFU, C9orf123 / Fold change vs veh, C9orf123 / RFU, N4BP2L2 / Fold change vs veh, N4BP2L2 / RFU, ARFIP1 / Fold change vs veh, ARFIP1 / RFU, FAM179B / Fold change vs veh, FAM179B / RFU, BCL10 / Fold change vs veh, BCL10 / RFU, UHRF1BP1L / Fold change vs veh, UHRF1BP1L / RFU, BET1 / Fold change vs veh, BET1 / RFU, CNOT2 / Fold change vs veh, CNOT2 / RFU, ZNF268 / Fold change vs veh, ZNF268 / Fold change vs veh, ZNF507 / RFU, DGCR2 / Fold change vs veh, DGCR2 / RFU, WDSUB1 / Fold change vs veh, WDSUB1 / Fold change vs veh, HSP90B1 /// MIR3652 / RFU, ADSS / Fold change vs veh, ADSS / RFU, GK / Fold change vs veh, GK / RFU, ZNF148 / Fold change vs veh, ZNF148 / RFU, TAF9 / Fold change vs veh, TAF9 / RFU, SLC1A5 / Fold change vs veh, SLC1A5 / RFU, SLMO2 / Fold change vs veh, SLMO2 / RFU, ABCC4 / Fold change vs veh, ABCC4 / RFU, LOC101060439 /// RAP1B / Fold change vs veh, LOC101060439 /// RAP1B / RFU, RFX7 / Fold change vs veh, RFX7 / RFU, GTPBP10 / Fold change vs veh, GTPBP10 / RFU, CNEP1R1 / Fold change vs veh, CNEP1R1 / RFU, BIVM-ERCC5 /// ERCC5 / Fold change vs veh, BIVM-ERCC5 /// ERCC5 / RFU, ILF3 / Fold change vs veh, ILF3 / RFU 11762660_at / Fold change /veh 11762660_at / RFU VCAN (11757783_s_at) / Fold change /veh VCAN (11757783_s_at) / RFU DDX43 (11728927_at) / Fold change /veh DDX43 (11728927_at) / RFU KRT8 (11758188_x_at) / Fold change /veh KRT8 (11758188_x_at) / RFU NKD1 (11759106_at) / Fold change /veh NKD1 (11759106_at) / RFU SRD5A1 (11742802_a_at) / Fold change /veh SRD5A1 (11742802_a_at) / RFU TPSAB1 /// TPSB2 (11721975_s_at) / Fold change /veh TPSAB1 /// TPSB2 (11721975_s_at) / RFU GSTM3 (11746129_a_at) / Fold change /veh GSTM3 (11746129_a_at) / RFU IL23R (11737362_x_at) / Fold change /veh IL23R (11737362_x_at) / RFU TMEM51 (11727254_a_at) / Fold change /veh TMEM51 (11727254_a_at) / RFU PIWIL2 (11732686_x_at) / Fold change /veh PIWIL2 (11732686_x_at) / RFU ORM1 (11744905_x_at) / Fold change /veh ORM1 (11744905_x_at) / RFU CCDC152 (11743942_at) / Fold change /veh CCDC152 (11743942_at) / RFU ECM1 (11717891_a_at) / Fold change /veh ECM1 (11717891_a_at) / RFU IL23R (11748794_a_at) / Fold change /veh IL23R (11748794_a_at) / RFU TNFAIP8L3 (11732012_x_at) / Fold change /veh TNFAIP8L3 (11732012_x_at) / RFU MBOAT4 (11741988_at) / Fold change /veh MBOAT4 (11741988_at) / RFU 11764193_at / Fold change /veh 11764193_at / RFU TMEM53 (11763286_at) / Fold change /veh TMEM53 (11763286_at) / RFU MAGEB2 (11727129_at) / Fold change /veh MAGEB2 (11727129_at) / RFU TMEM200A (11744735_a_at) / Fold change /veh TMEM200A (11744735_a_at) / RFU CCDC152 (11751479_a_at) / Fold change /veh CCDC152 (11751479_a_at) / RFU FAM211A (11726209_a_at) / Fold change /veh FAM211A (11726209_a_at) / RFU RGS16 (11746705_a_at) / Fold change /veh RGS16 (11746705_a_at) / RFU VCAN (11755009_s_at) / Fold change /veh VCAN (11755009_s_at) / RFU RHOB (11743442_s_at) / Fold change /veh RHOB (11743442_s_at) / RFU RGS16 (11720943_a_at) / Fold change /veh RGS16 (11720943_a_at) / RFU RGS16 (11720944_at) / Fold change /veh RGS16 (11720944_at) / RFU, VPS4B / Fold change vs veh, VPS4B / RFU, CREB1 / Fold change vs veh, CREB1 / RFU, DNAJC13 / Fold change vs veh, DNAJC13 / RFU, GNAQ / Fold change vs veh, GNAQ / RFU, CDK5R1 / Fold change vs veh, CDK5R1 / RFU, ZRANB3 / Fold change vs veh, ZRANB3 / RFU, CUL4A / Fold change vs veh, CUL4A / RFU, CCNY / Fold change vs veh, CCNY / RFU, UFL1 / Fold change vs veh, UFL1 / RFU, COG3 / Fold change vs veh, COG3 / RFU, DIAPH2 / Fold change vs veh, DIAPH2 / RFU, SKA2 / Fold change vs veh, SKA2 / RFU, AFF3 / Fold change vs veh, AFF3 / RFU, LMF1 / Fold change vs veh, LMF1 / RFU, IPO11 / Fold change vs veh, IPO11 / RFU, DFFB / Fold change vs veh, DFFB / RFU, FOXP1 / Fold change vs veh, FOXP1 / RFU, CARD8 / Fold change vs veh, CARD8 / RFU, STRN3 / Fold change vs veh, STRN3 / RFU, ADK / Fold change vs veh, ADK / RFU, RASSF2 / Fold change vs veh, RASSF2 / RFU, WIPF1 / Fold change vs veh, WIPF1 / RFU, LARP1B / Fold change vs veh, LARP1B / RFU, RASA1 / Fold change vs veh, RASA1 / RFU, RB1 / Fold change vs veh, RB1 / RFU, PPFIA1 / Fold change vs veh, PPFIA1 / RFU, MAT2A / Fold change vs veh, MAT2A / RFU, CCT5 / Fold change vs veh, CCT5 / RFU, WDR92 / Fold change vs veh, WDR92 / RFU, CUX1 / Fold change vs veh, CUX1 / RFU, TTC7A / Fold change vs veh, TTC7A / RFU, TMEM135 / Fold change vs veh, TMEM135 / RFU, DEPTOR / Fold change vs veh, DEPTOR / RFU, CPM / Fold change vs veh, CPM / RFU, DNAJB6 / Fold change vs veh, DNAJB6 / RFU, CACNA2D3 / Fold change vs veh, CACNA2D3 / RFU, DTX4 / Fold change vs veh, DTX4 / RFU, TFCP2 / Fold change vs veh, TFCP2 / RFU, GMCL1 /// GMCL1P1 / Fold change vs veh, GMCL1 /// GMCL1P1 / RFU, AEBP2 / Fold change vs veh, AEBP2 / RFU, SNHG1 /// SNORD22 /// SNORD25 /// SNORD26 /// SNORD27 /// SNORD28 /// SNORD29 /// SNORD31 / Fold change vs veh, SNHG1 /// SNORD22 /// SNORD25 /// SNORD26 /// SNORD27 /// SNORD28 /// SNORD29 /// SNORD31 / Fold change (Aza/veh), C12orf56 (ProbeSet 11735607_a_at) / Fold change (ACY-1035/veh), C12orf56 (ProbeSet 11735607_a_at) / Fold change (Aza/veh), FGFR1OP (ProbeSet 11751329_s_at) / Fold change (ACY-1035/veh), FGFR1OP (ProbeSet 11751329_s_at) / Fold change (Aza/veh), VPS36 (ProbeSet 11739960_a_at) / Fold change (ACY-1035/veh), VPS36 (ProbeSet 11739960_a_at) / RFU SYPL1 (11715823_x_at) / Fold change /veh SYPL1 (11715823_x_at) / RFU IGFBP7 (11715501_s_at) / Fold change /veh IGFBP7 (11715501_s_at) / RFU REEP3 (11722064_at) / Fold change /veh REEP3 (11722064_at) / RFU IGLL1 (11728026_x_at) / Fold change /veh IGLL1 (11728026_x_at): dose or concentration left out as unconfirmed
Details: MV-4-11 cells, 48 hours

Compound: Nc1ccc(-c2cccs2)cc1NC(=O)c1ccc2c(c1)cc(C1CC1)n2CCN1CCOCC1 [ACY-1035]
- Fold change /veh KRTAP5-7 /// NADSYN1 (11734609_at): 0.96
